Source: US11096985B2, “Antimicrobial peptides, their variants and uses” (priority 2015, dated 2021)

Assays:
Type in all cases: cell-based
[1] = system: clinical strains of Proteus mirabilis; test: MIC, clinical strains of Proteus mirabilis; design: unit: µg/mL; details: microdilution, Muller Hinton broth-cation adjusted, 0.02% BSA, 0.2% acetic acid
In short: (§1)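 By broth microdilution, Chain peptides from 0.125 to 128 μg/ml were tested against clinical strains adjusted to 5.0×10^5 cfu/ml, with bacteria in MH broth and yeasts in Potato dextrose broth. After 20–24 h at 37 °C, the lowest peptide concentration without visible growth was scored as MIC.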

[2] = system: clinical strains of Pseudomonas aeruginosa; test: MIC, clinical strains of P. aeruginosa; design: unit: μg/ml; details: microdilution, Muller Hinton broth-cation adjusted, 0.02% BSA, 0.2% acetic acid
In short: as §1

[3] = system: clinical strains of Enterobacter cloacae; test: MIC, clinical strains of Enterobacter cloacae; design: unit: μg/ml; details: microdilution, Muller Hinton broth-cation adjusted, 0.02% BSA, 0.2% acetic acid
In short: as §1

[4] = system: clinical strains of Serratia marcescens; test: MIC, clinical strains of Serratia marcescens; design: unit: µg/mL; details: microdilution, Muller Hinton broth-cation adjusted, 0.02% BSA, 0.2% acetic acid
In short: as §1

[5] = system: clinical strains of Staphylococcus aureus; test: MIC, clinical strains of S. aureus; design: unit: μg/ml; details: microdilution, Muller Hinton broth-cation adjusted, 0.02% BSA, 0.2% acetic acid
In short: as §1

[6] = system: clinical strains of Streptococcus pneumoniae; test: MIC, clinical strains of Streptococcus pneumoniae; design: unit: µg/mL; details: microdilution, Muller Hinton broth-cation adjusted, 0.02% BSA, 0.2% acetic acid
In short: as §1

[7] = system: clinical strains of Acinetobacter baumannii; test: MIC, clinical strains of Acinetobacter baumannii; details: microdilution, Muller Hinton broth-cation adjusted, 0.02% BSA, 0.2% acetic acid
Experimental: (§2) Minimum inhibition concentrations (MICs) were determined against Escherichia coli (ATCC 25922), Staphylococcus aureus (ATCC 25923), Klebsiella pneumoniae (ATCC 10031) and Pseudomonas aeruginosa (ATCC 27853). Also clinical strains of E. coli, K. pneumoniae, E. cloacae, P. aeruginosa, Serratia marcescens, Proteus mirabilis, S. pneumoniae, Acinetobacter baumannii, A. johnsonii and S. aureus were used for MICs assays. Additionally, clinical strains of yeast including Candida albicans, C. glabrata, C. parapsilosis and C. quillermondiae were used. The susceptibility of these microorganisms to Chain peptides were determined using micro broth dilution assay. Colonies of the respective microorganism from Muller Hinton (MH) agar plates incubated overnight were suspended in MH broth media and final concentration of microorganism was adjusted to 5.0×10^5 cfu/ml. An aliquot of 10 μl of each Chain peptide, or gentamicin, tetracycline as reference antibiotics were added in differing concentrations along with 90 μl of bacterial suspension to 96 well polypropylene plates and incubated at 37° C. for 20 to 24 hours. Concentrations of Chain peptides and reference antibiotics ranged from 0.125 to 128 μg/ml and the MICs were recorded as the lowest concentration with no visual growth of bacteria. Similarly, antifungal MICs were tested in Potato dextrose broth.
(§3) Clinical strains of yeasts including Candida albicans, C. glabrata, C. parapsilosis and C. quillermondiae were also tested with the 12 Chain peptides. The minimum inhibitory concentration (MICs) varied between these peptides and are presented in Tables 4a, 4b, 4c and 5a, 5b, 5c. Peptides Chain 105, 201 and 308 are broad spectrum antimicrobials with MICs between 0.5-32 μg/ml against all the bacteria and yeasts tested, except Serratia marcescens and Proteus mirabilis, against which the MICs were between 64-128 μg/ml. Peptide Chain 306 has narrow spectrum activity against E.coli at 1 μg/ml and for the rest of the bacterial strains at >32 μg/ml (FIG. 10).

[8] = system: clinical strains of Escherichia coli; test: MIC, clinical strains of E. coli; design: unit: μg/ml; details: microdilution, Muller Hinton broth-cation adjusted, 0.02% BSA, 0.2% acetic acid
In short: as §1

[9] = system: clinical strains of Acinetobacter johnsonii; details: Acinetobacter johnsonii clinical strain 1; microdilution, Muller Hinton broth-cation adjusted, 0.02% BSA, 0.2% acetic acid
Experimental: as §2, §3

[10] = system: clinical strains of Klebsiella pneumoniae; test: MIC, clinical strains of K. pneumoniae; design: unit: μg/ml; details: microdilution, Muller Hinton broth-cation adjusted, 0.02% BSA, 0.2% acetic acid
In short: as §1

In the case of Gentamicin [reference compound], the Minimum inhibitory concentration ([1]; Proteus mirabilis clinical strain 1) is reported as 2, the Minimum inhibitory concentration ([1]; Proteus mirabilis clinical strain 2) is reported as 2 and the Minimum inhibitory concentration ([1]; Proteus mirabilis clinical strain 3) is reported as >128. The Minimum inhibitory concentration ([1]; Proteus mirabilis clinical strain 4) was 8, the Minimum inhibitory concentration ([1]; Proteus mirabilis clinical strain 5) was >128 and the Minimum inhibitory concentration ([2]; Pseudomonas aeruginosa clinical strain 1) was 1. The Minimum inhibitory concentration ([2]; Pseudomonas aeruginosa clinical strain 2) was 0.5, the Minimum inhibitory concentration ([2]; Pseudomonas aeruginosa clinical strain 3) was 0.5 and the Minimum inhibitory concentration ([2]; Pseudomonas aeruginosa clinical strain 4) was 0.5. For the same substance, the Minimum inhibitory concentration ([2]; Pseudomonas aeruginosa clinical strain 5) was 0.25, the Minimum inhibitory concentration ([3]; Enterobacter cloacae clinical strain 1) was 0.25 and the Minimum inhibitory concentration ([3]; Enterobacter cloacae clinical strain 2) was 0.25. For the same substance, the Minimum inhibitory concentration ([3]; Enterobacter cloacae clinical strain 3) was 0.25, the Minimum inhibitory concentration ([3]; Enterobacter cloacae clinical strain 4) was 0.25 and the Minimum inhibitory concentration ([3]; Enterobacter cloacae clinical strain 5) was 0.25. For the same substance, the Minimum inhibitory concentration ([4]; Serratia marcescens clinical strain 1) was 1, the Minimum inhibitory concentration ([4]; Serratia marcescens clinical strain 2) was 2 and the Minimum inhibitory concentration ([4]; Serratia marcescens clinical strain 3) was 1. For the same substance, the Minimum inhibitory concentration ([4]; Serratia marcescens clinical strain 4) was 1, the Minimum inhibitory concentration ([4]; Serratia marcescens clinical strain 5) was 1 and the Minimum inhibitory concentration ([5]; Staphylococcus aureus clinical strain 1) was 0.5. It also gave a Minimum inhibitory concentration ([5]; Staphylococcus aureus clinical strain 2) of 0.5, a Minimum inhibitory concentration ([5]; Staphylococcus aureus clinical strain 3) of 0.5 and a Minimum inhibitory concentration ([5]; Staphylococcus aureus clinical strain 4) of 0.5. It also gave a Minimum inhibitory concentration ([5]; Staphylococcus aureus clinical strain 5) of 0.5, a Minimum inhibitory concentration ([6]; Streptococcus pneumoniae clinical strain 1) of 2 and a Minimum inhibitory concentration ([6]; Streptococcus pneumoniae clinical strain 2) of 2. The Minimum inhibitory concentration ([6]; Streptococcus pneumoniae clinical strain 3) was 2, the Minimum inhibitory concentration ([6]; Streptococcus pneumoniae clinical strain 4) was 2 and the Minimum inhibitory concentration ([6]; Streptococcus pneumoniae clinical strain 5) was 1. It also gave a Minimum inhibitory concentration ([7]; Acinetobacter baumannii clinical strain 1) of 0.5, a Minimum inhibitory concentration ([7]; Acinetobacter baumannii clinical strain 2) of 0.25 and a Minimum inhibitory concentration ([7]; Acinetobacter baumannii clinical strain 3) of 0.5. It also gave a Minimum inhibitory concentration ([7]; Acinetobacter baumannii clinical strain 4) of 0.5, a Minimum inhibitory concentration ([7]; Acinetobacter baumannii clinical strain 5) of 0.25 and a Minimum inhibitory concentration ([8]; Escherichia coli clinical strain 1) of 0.5. For the same substance, the Minimum inhibitory concentration ([8]; Escherichia coli clinical strain 2) was 0.5, the Minimum inhibitory concentration ([8]; Escherichia coli clinical strain 3) was 1 and the Minimum inhibitory concentration ([8]; Escherichia coli clinical strain 4) was 1. It also gave a Minimum inhibitory concentration ([8]; Escherichia coli clinical strain 5) of 1, a Minimum inhibitory concentration [9] of 0.25 and a Minimum inhibitory concentration ([10]; Klebsiella pneumoniae clinical strain 1) of 2. For the same substance, the Minimum inhibitory concentration ([10]; Klebsiella pneumoniae clinical strain 2) was 0.25, the Minimum inhibitory concentration ([10]; Klebsiella pneumoniae clinical strain 3) was 2 and the Minimum inhibitory concentration ([10]; Klebsiella pneumoniae clinical strain 4) was 2. For the same substance, the Minimum inhibitory concentration ([10]; Klebsiella pneumoniae clinical strain 5) was 4.
